The values that follow come from patent publication US20120108666A1, “Treatment of Cell Proliferative Disorders” (priority 2006, published 2012).

SMILES strings stand for the structures.

One data set concerns E6.1 Jurkat cells. The data set is described as follows: Viability of E6.1 Jurkat cells after 24 and 48 hours (FIGS. 18, 19). Format: cell-based. The settings on record: 24 and 48 hours of incubation. How it is done: FIG. 18 illustrates, in comparison with cyclosporin-treated Jurkat cells, the viability of E6.1 Jurkat cells treated with differing concentrations of AV 61S or AV 74S after 24 hours; and
FIG. 19 illustrates, in comparison with cyclosporin-treated Jurkat cells, the viability of E6.1 Jurkat cells treated with differing concentrations of AV 61S or AV 74S after 48 hours.
(§1) The jurkat E6.1 line is a Syk-deficient line; in fact, AV 61S after 7 days has no effect on this cell line (i.e., neither apoptosis nor inhibition, see […]). […] The viability study has been performed after 24 and 48 hours of incubation, each time for 3 evaluations; within 1, 3 and 6 hours.

For data set [1], the system named is Syk-containing Jurkat cells. Put plainly: Jurkat cell survival after seven days (FIG. 4). It counts as cell-based. Particulars: 50 μg/ml. On the procedure: FIG. 4 illustrates the effect of AV 61S and AV 74S on Jurkat cell survival after a seven day period;
as §1

The subject of data set [2] is jurkat E6.1 line (Syk-deficient). The data set is described as follows: E6.1 Jurkat cell survival after seven days (FIG. 3). Format: cell-based. The settings on record: after 7 days. On the procedure: as §1
The next data set deals with HL-60 cells. The data set is described as follows: XTT viability of HL-60 cells after 3 days, with and without piceatannol. It counts as cell-based, human. The settings on record: for viability of HL-60 cells, XTT method: 3 days. An excerpt:
Secondly, the effect of compounds of the invention may be compared to the natural inhibitor of Syk, piceatannol.
Background: Tetrazolium dyes change colour on reduction, which living cells bring about.

In a further data set the test system is PHA-activated PBMCs. The data set is described as follows: Inhibition of PHA-activated PBMCs (lymphocyte proliferation). It counts as cell-based, human. The settings on record: varying concentrations. On the procedure: as §1
FIGS. 1 and 2 show the effect of diluent on compounds of the invention.

As for `CC(CO)OCC(C)OCC(C)OCC(C)OCC(C)OCC(C)OCC(C)OC[C@H](Cc1ccccc1)NC(=O)CCc1ccc(O)cc1` (stereo partly drawn) [AV 61S], in the data set with E6.1 Jurkat cells, the “killing of E6.1 Jurkat cells (viability study)” value is “do not kill them”. In addition, the “killing of Syk-containing Jurkat cells” value in data set [1] is given as approximately 100%. Further, in data set [2], the “effect on Syk-deficient jurkat E6.1 line (apoptosis, inhibition)” value is “no effect”. In addition, the “viability of HL-60 cells, XTT method” value was 97 % of control in the data set on HL-60 cells (50 μg/ml with Pic 10 μM); 83 % of control in the data set on HL-60 cells (50 μg/ml with Pic 30 μM); 81 % of control with HL-60 cells (50 μg/ml, no piceatannol); 59 % of control in the data set on HL-60 cells (100 μg/ml with Pic 10 μM); 23 % of control with HL-60 cells (100 μg/ml with Pic 30 μM); 36 % of control in the data set with HL-60 cells (100 μg/ml, no piceatannol). Also, the results for the “inhibitory effect on PHA-activated PBMCs” value in the data set with PHA-activated PBMCs (DMSO carrier) and in the data set with PHA-activated PBMCs (PBS carrier) were “inhibitory effect” and “lesser inhibitory effect”, respectively.

For the compound `Oc1cc(O)cc(/C=C/c2ccc(O)c(O)c2)c1` [piceatannol, reference compound], the “blocking of the inhibitory effect of AV 74S by piceatannol” value in the data set on HL-60 cells (AV 74S at 100 μg/ml, HL-60) was “at least partially blocks the inhibitory effect of AV 74S”.
